Paper PMC7913927, “Leishmanicidal Activity of Betulin Derivatives in Leishmania amazonensis; Effect on Plasma and Mitochondrial Membrane Potential, and Macrophage Nitric Oxide and Superoxide Production” (Microorganisms, 2021)
Entries after “also recorded” stand apart in the source; their conditions may differ.

Columns and labels:
[1] = system: L. (L.) amazonensis LTB0016, VE98MR and VE2000MM promastigotes; experiment: Mitochondrial membrane potential (ΔΨm), JC-1 fluorescence; assay type: cell-based, Leishmania amazonensis; settings: promastigotes of LTB0016, VE98MR, 48 h, 18: 1 and 2 µM, 22: 2 and 4 µM, vs untreated
Protocol: To evaluate the mitochondrial membrane potential (ΔΨm), the fluorescent compound JC-1 (5,5′,6,6′-tetrachloro-1,1′,3,3′-tetraethylbenzimidazolocarbocyanine iodide) was used, according to a modification of a previously described method. Exponential phase promastigotes were suspended at 26 °C, in RPMIc without phenol red, in a volume of 1 mL, at a cell density of 1 × 10^7 parasites mL^−1. The parasites were left to grow for 48 h, in the presence and absence of the test compounds. Then, after centrifuging (500× g for 10 min) and washing the parasites twice with PBS, they were resuspended in 200 µL of HEPES-G, and placed in 96-well plates. […] Finally, fluorescence was measured in a Victor^2 Wallac spectrofluorometer (Perkin Elmer, Turku, Finland) at the appropriate wavelengths (ex: 485 nm/em: 535 and 580 nm). As the mitochondrial membrane is polarized, JC-1 produces intra-mitochondrial aggregates “J-aggregates” that emit a red fluorescence (λ 590 nm). Mitochondrial membrane depolarization induces JC-1 monomeric conformation in the cytoplasm, then the fluorescence turns green (λ 530 nm). The red/green ratio of fluorescence then is an indirect measurement of the mitochondrial membrane potential. A more depolarized mitochondria means a lower ratio of red/green fluorescence.
Relative fluorescence (RF) was calculated, where RF = 580 nm fluorescence/535 nm fluorescence (red/green). […]

[2] = system: L. (L.) amazonensis LTB0016 promastigotes; experiment: Promastigote in vitro susceptibility (Alamar Blue/resazurin), reference strain; assay type: cell-based, Leishmania amazonensis; settings: LTB0016, 50 µM
Protocol: The fluorometric method of Alamar Blue® (resazurin) was used. Promastigotes grown in biphasic agar-blood medium, at the exponential phase of growth, were seeded in flat-bottom 96-well culture plates, at a cell density of 1 × 10^6 parasites mL^−1 (200,000 parasites/well), in 180 µL of RPMIc without phenol red. Subsequently, either a sole concentration (50 µM), or increasing concentrations of compounds or drugs were applied, according to each treatment group, in volumes of 2 µL. Plates were kept at 26 °C, in a humid chamber, for 72 h. […] Live parasites are metabolically active and capable of reducing non-fluorescent resazurin (blue) to fluorescent resorufin (red). Fluorescence intensity is directly proportional to the number of viable cells. […] At least two independent experiments were performed in duplicate. The effect of trivalent antimonial [SbIII, potassium antimonyl tartrate trihydrate, Sigma-Aldrich, (St. Louis, MO, USA)] was included as positive control of the assay.

In the case of C=C(C)C1CCC2(C=NO)CCC3(C)C(CCC4C5(C)CCC(=NO)C(C)(C)C5CCC43C)C12 (centres unmarked) [Compound 18], the “Effect on mitochondrial membrane potential (ΔΨm)” value [1] is reported as “significantly depolarized; also recorded: depolarizes ΔΨm in a concentration-dependent way” and the growth inhibition [2] is reported as “at least 75%”.
